In patent US9868705B2, “Tetra-aryl cyclobutane inhibitors of androgen receptor action for the treatment of hormone refractory cancer” (The Board of Trustees of the University of Illinois, priority 2013, dated 2018):
Substitutions are numbered along the chain they refer to. Read-outs that look alike come from different tables or passages of the source.

Assays:
[1] = test system: LNCaP and VCaP cell lines; assay: General toxicity screen in LNCaP and VCaP cell lines; assay type: cell-based, human; settings: at concentrations as high as 25 μM
T877A (LNCaP) AR = biological target: T1, T877A (LNCaP) AR (Homo sapiens, UniProt P10275, T878A); assay: MMTV-luciferase transcription assay in CV-1 cells, T877A AR; assay type: cell-based
T1 construct: expressed in transfected cells; host or cells: CV-1
T1 sequence (P10275 1-920 T878A): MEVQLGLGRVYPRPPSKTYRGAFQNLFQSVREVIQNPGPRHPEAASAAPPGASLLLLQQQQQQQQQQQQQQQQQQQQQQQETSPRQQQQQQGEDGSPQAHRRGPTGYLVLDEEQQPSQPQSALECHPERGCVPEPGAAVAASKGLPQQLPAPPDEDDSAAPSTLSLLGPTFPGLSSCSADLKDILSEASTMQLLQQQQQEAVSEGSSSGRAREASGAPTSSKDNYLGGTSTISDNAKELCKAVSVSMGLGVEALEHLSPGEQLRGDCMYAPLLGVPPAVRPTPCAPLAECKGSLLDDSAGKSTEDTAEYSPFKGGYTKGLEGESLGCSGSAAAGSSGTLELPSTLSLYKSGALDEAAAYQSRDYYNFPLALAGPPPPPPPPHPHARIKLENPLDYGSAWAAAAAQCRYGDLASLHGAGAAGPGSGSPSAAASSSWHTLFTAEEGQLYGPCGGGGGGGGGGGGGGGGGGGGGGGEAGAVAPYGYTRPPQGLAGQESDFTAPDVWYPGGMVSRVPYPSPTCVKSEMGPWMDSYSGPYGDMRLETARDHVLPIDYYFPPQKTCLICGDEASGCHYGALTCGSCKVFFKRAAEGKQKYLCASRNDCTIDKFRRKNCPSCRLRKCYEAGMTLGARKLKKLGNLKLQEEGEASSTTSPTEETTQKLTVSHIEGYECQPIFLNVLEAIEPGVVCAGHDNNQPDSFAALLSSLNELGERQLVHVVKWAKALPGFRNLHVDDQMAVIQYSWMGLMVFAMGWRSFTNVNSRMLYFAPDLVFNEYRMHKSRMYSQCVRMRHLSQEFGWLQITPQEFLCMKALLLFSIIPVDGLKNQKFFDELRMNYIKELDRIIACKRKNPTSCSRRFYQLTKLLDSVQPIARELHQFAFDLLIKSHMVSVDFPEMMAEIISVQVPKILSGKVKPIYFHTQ
Description: (§1) These compounds were screened using an AR-responsive MMTV transcription assay in CV-1 cells, utilizing both wild type and T877A (LNCaP) AR. […]

AR [2] = biological target: T2, AR (Homo sapiens, UniProt P10275); assay: AR relative binding affinity (RBA)
T2 sequence (P10275 1-920): T1 sequence (P10275 1-920 T878A) with A878T

VCaP cells = assay: VCaP cell proliferation; assay type: cell-based
LNCaP cells = assay: LNCaP cell proliferation
AR-VP16 construct = assay: MMTV-luciferase reporter gene assay with AR-VP16 construct (AR/DNA binding); assay type: cell-based
Description: Accordingly, we analyzed the disruption of AR/DNA binding using a luciferase reporter gene assay transfected with an AR-VP16 construct that is constitutively active upon DNA binding, regardless of the ability of AR to recruit transcriptional machinery (FIG. 40A). Simultaneously, we examined CV-1 cells transfected with an AR construct that is only transcriptionally active when there is a positive interaction between the NTD and C-terminal LBD ([…]) (FIG. 40B).

wild type AR = biological target: T3, wild type AR (Homo sapiens, UniProt P10275); assay: MMTV-luciferase transcription assay in CV-1 cells, wild type AR; assay type: cell-based; settings: wild type AR; values given in μM; read-out: MMTV transcription assay in CV-1 cells WT (IC50)
T3 construct: expressed in transfected cells; host or cells: CV-1
T3 sequence (P10275 1-920): T1 sequence (P10275 1-920 T878A) with A878T
Description: as §1

AR [3] = biological target: T2, AR; assay: Western blot analysis of AR degradation; assay type: cell-based
[4] = biological target: T4, T877A mutant androgen receptor (Homo sapiens, UniProt P10275, T878A); assay: FKBP51 endogenous gene expression in LNCaP-XIP cells; assay type: cell-based
T4 construct: endogenous in cells; host or cells: LNCaP-XIP
T4 sequence (P10275 1-920 T878A): T1 sequence (P10275 1-920 T878A)
Description: (§2) FIG. 44 depicts data for dose-dependent inhibition of androgen receptor-dependent endogenous gene expression of FKBP51 by Compound 1 of Example IV in LNCaP cells producing exclusively T877A mutant androgen receptor (LNCaP-XIP) and LNCaP cells transfected with wild type androgen receptor (LNCaP-androgen receptor, ratio of wild type to T877A receptor is ca. 3:1).
(§3) To more fully characterize the selectivity of compound 1 for the mutant receptor, we measured its inhibitory potential against the WT and T877A mutant receptor in an AR-dependent luciferase transcription assay in CV-1 cells (FIGS. 43A and B).

[5] = test system: wild type androgen receptor; assay: FKBP51 endogenous gene expression in LNCaP-AR cells (wild type AR overexpressed); assay type: cell-based, human; settings: at 20 M (so in the source)
Description: as §2, §3

increase in potency for T877A mutant over WT (T877A (LNCaP) AR; AR-dependent luciferase transcription assay in CV-1 cells): approximately 10 fold
IC50 (T877A (LNCaP) AR; CV1 transient transfection, MMTV-Luciferase reporter, read-out: IC50 T877A): 0.81 µM
IC50 (T877A (LNCaP) AR; T877A AR, values given in μM, read-out: MMTV transcription assay in CV-1 cells T877A (IC50)): 1.1 µM
AR RBA (AR [2]): 0.056%
inhibition of AR/DNA binding (AR-VP16 construct): inhibitory activity
IC50 (wild type AR): 18 µM
concentration at which maximal inhibition is obtained ([4]; FKBP51 expression, T877A mutant receptor): 2 µM
inhibition of FKBP51 gene expression ([4]; LNCaP-XIP, 2 μM): complete inhibition
Structure (SMILES): COc1cc([C@H]2[C@H](c3ccccc3)[C@H](c3cc(OC)nc(OC)n3)[C@H]2c2ccccc2)nc(OC)n1 [CB-22]
toxicity [1]: complete lack of toxicity
inhibition of VCaP cell proliferation (VCaP cells): slow cell-growth in a dose-dependent manner
more potent in LNCaP cells than in VCaP cells (anti-proliferative activity) (LNCaP cells; LNCaP vs VCaP): 10-15 fold
inhibition of LNCaP cell proliferation (LNCaP cells; androgen-stimulated LNCaP cells): slow cell-growth in a dose-dependent manner
rate of receptor proteolysis (AR [3]): does not influence the rate of receptor proteolysis
inhibition of FKBP51 gene expression [5]: approximately 50%
